Consider one molecule from patent publication US8420574B2, “Plant growth enhancement with combinations of PESA and herbicides” (Valent BioSciences Corporation, priority 2009, dated 2013).

Experiment [1] concerns rice cv. Cheniere. As to the kind of experiment: Pouch assay with PESA salt seed treatment; root length. In kind it is in vivo. The following applies: 0 g PESA salt/100 lbs of seed, untreated 9.8. Here is the method: Procedure for Treating Samples of Seed in the Laboratory
Seed was sieved with a screen of mesh size appropriate to remove broken seeds and small trash. Cracked or otherwise damaged seeds were removed. The seed was well mixed, and 50 g samples were weighed into small plastic trays. Seed treatment slurries were made by adding measured amounts of PESA or its salts and other AIs to sufficient water to bring them up to a standard volume, typically 2 ml. A fungicide (Maxim XL; Syngenta Agricultural Products, Greensboro, N.C.), a polymeric binder (CF-Clear; Becker-Underwood, Ames, Iowa), and a colorant (Color Coat Red; Becker-Underwood, Ames, Iowa) were also included in the slurry at label rates. A small aliquot of this slurry was applied to the seed using the Hege 11 coater (Wintersteiger, Salt Lake City, Utah) with a six-inch bowl at a slurry rate of 30 ounces per 100 lbs of seed. The slurry was deposited drop-wise on the spinning disk atomizer using a syringe.
After treatment, each seed sample was placed in plastic trays and dried at a room temperature for 20 to 60 minutes. The samples were then placed in small plastic bags. Samples were spot-checked using a water activity meter to make sure the water activity is below 0.7.
(§1) Seeds were placed in germination pouches consisting of germination paper hydrated with sterile water that was an insert in a gas-permeable 16×14 cm plastic pouch (CYG Pouch; Mega International, St. Paul, Minn.). In these examples, in pouch solution evaluation, PESA sodium salt or other active ingredients were added to the sterile water in the pouch. The pouches were arranged in a completely randomized block design in growth racks and placed in 19-liter polycarbonate food storage containers (Rubbermaid Commercial Products, Winchester, Va.). The sealed containers were held in an upright growth cabinet maintained at 25 C with a 12 hour light: 12 hour dark photoperiod. After 6 days, the containers were removed from the growth cabinet, and the lengths of the roots and shoot were measured.
Rice cv. Chemere was treated with PESA sodium salt prior to growing in the pouch. The treated seeds were then grown in the pouch in a dose-dependent series of trifluralin concentrations (Table 2). […] This confirms that seed treatment with the PESA salt protects or safens rice from the negative effects of trifluralin herbicide on root growth.

Experiment [2] concerns rice cv. Cheniere. Nature of the experiment: Pouch assay, PESA salt and herbicide added to the pouch solution; root and shoot length. In kind it is in vivo. The following applies: for Shoot Length / Root Length: 0 ppm PESA salt; for Shoot Length: untreated 3.2; for Root Length: untreated 9.2. On the procedure:
Alternatively, PESA salt and herbicides may be added separately to the sterile water in the growth pouch.
as §1

Regarding `CCCN(CCC)c1c([N+](=O)[O-])cc(C(F)(F)F)cc1[N+](=O)[O-]` [Trifluralin, trifluralin, reference compound], the “Root Length” value in the experiment with rice cv. Cheniere [1] (50 ppm trifluralin) was found to be 0.9 cm; in the experiment with rice cv. Cheniere [1] (100 ppm trifluralin), 0.1 cm; in the experiment on rice cv. Cheniere [2] (1 ppm trifluralin) it was 9.8 cm; in the experiment on rice cv. Cheniere [2] (10 ppm trifluralin), 8.3 cm; in the experiment with rice cv. Cheniere [2] (100 ppm trifluralin), 0.9 cm. The “Shoot Length” value with rice cv. Cheniere [2] (1 ppm trifluralin) was found to be 3.7 cm; with rice cv. Cheniere [2] (10 ppm trifluralin), 3.3 cm; in the experiment with rice cv. Cheniere [2] (100 ppm trifluralin), 2.2 cm. Further, in the experiment with rice cv. Cheniere [2] (100 ppm trifluralin), the “root length reduced by” value was 90%.
